Source: ChEMBL document CHEMBL1201862, “PubChem BioAssay data set” (2004)
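These data come from cells grown in 96-well plates and exposed to compound for 48 hours at five concentrations. Abbreviation: GI50, concentration required for 50% inhibition of growth.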 Calls of active or inactive are those of the source. No stated cut-off is given here; in the data, active = GI50 up to about 1.1 µM and inactive = higher.

Columns and labels:
Assay in all cases: growth of human tumour cells (NCI), 48 h
A549 = tested on: A549
BT-549 = tested on: BT-549
CCRF-CEM = tested on: CCRF-CEM
COLO 205 = tested on: COLO 205
HCC 2998 = tested on: HCC 2998
HCT-116 = tested on: HCT-116
HOP-62 = tested on: HOP-62
HOP-92 = tested on: HOP-92
MCF7 = tested on: MCF7
NCI-H23 = tested on: NCI-H23
NCI/ADR-RES = tested on: NCI/ADR-RES
RPMI-8226 = tested on: RPMI-8226
RXF 393 = tested on: RXF 393
SF-295 = tested on: SF-295
SK-MEL-28 = tested on: SK-MEL-28
SK-MEL-2 = tested on: SK-MEL-2
SK-MEL-5 = tested on: SK-MEL-5
U-251 = tested on: U-251
OVCAR-3 = tested on: OVCAR-3

Row | Compound | GI50 (A549) | GI50 (BT-549) | GI50 (CCRF-CEM) | GI50 (COLO 205) | GI50 (HCC 2998) | GI50 (HCT-116) | GI50 (HOP-62) | GI50 (HOP-92) | GI50 (MCF7) | GI50 (NCI-H23) | GI50 (NCI/ADR-RES) | GI50 (RPMI-8226) | GI50 (RXF 393) | GI50 (SF-295) | GI50 (SK-MEL-28) | GI50 (SK-MEL-2) | GI50 (SK-MEL-5) | GI50 (U-251) | GI50 (OVCAR-3)
1 | Cc1nnc(N)nc1/C=C\c1cccs1 | 27.7 µM (inactive) | 42.9 µM (inactive) | 16.7 µM (inactive) | 27.7 µM (inactive) | 14.6 µM (inactive) | 17.3 µM (inactive) | 16.7 µM (inactive) | 18.4 µM (inactive) | 13.9 µM (inactive) | 17.6 µM (inactive) | 16.7 µM (inactive) | 22.4 µM (inactive) | 19.5 µM (inactive) | 21.4 µM (inactive) | 28.8 µM (inactive) | 14.6 µM (inactive) | > 10 µM (inactive) | 29.9 µM (inactive) | 
2 | CCN(CC)CCOc1ccc(N2C(=O)c3cc(OC)c(OC)cc3C2=O)cc1 | > 100 µM (inactive) | > 100 µM (inactive) | > 100 µM (inactive) | > 100 µM (inactive) | > 100 µM (inactive) | > 100 µM (inactive) | > 100 µM (inactive) | > 100 µM (inactive) | > 100 µM (inactive) | > 100 µM (inactive) | > 100 µM (inactive) | > 100 µM (inactive) | > 100 µM (inactive) | > 100 µM (inactive) | > 100 µM (inactive) | > 100 µM (inactive) | > 100 µM (inactive) | > 100 µM (inactive) | > 100 µM (inactive)
3 | CO/C(N)=C(C#N)/N=C/c1ccco1 | > 100 µM (inactive) | > 100 µM (inactive) | 67.8 µM (inactive) | > 100 µM (inactive) | > 100 µM (inactive) | > 100 µM (inactive) | > 100 µM (inactive) | > 100 µM (inactive) | > 100 µM (inactive) | > 100 µM (inactive) | > 100 µM (inactive) | > 100 µM (inactive) | > 100 µM (inactive) | > 100 µM (inactive) | > 100 µM (inactive) | > 100 µM (inactive) | > 100 µM (inactive) | > 100 µM (inactive) | > 100 µM (inactive)
4 | COc1c(O)ccc(C2=Cc3ccc(O)cc3OC2)c1OC | 24.8 µM (inactive) | 23.6 µM (inactive) | 4.37 µM (inactive) | 28.2 µM (inactive) | 21 µM (inactive) | 24.3 µM (inactive) | 20.9 µM (inactive) | 24 µM (inactive) | 32.4 µM (inactive) | 22.3 µM (inactive) | 14.5 µM (inactive) | 3.51 µM (inactive) | 18.7 µM (inactive) | 22.8 µM (inactive) | 34.3 µM (inactive) | 23.4 µM (inactive) | 16.1 µM (inactive) | 26 µM (inactive) | 14.9 µM (inactive)
5 | Nc1nc(Sc2ccc([N+](=O)[O-])c3nonc23)c2nc[nH]c2n1 | 3.69 µM (inactive) | 2.07 µM (inactive) | 0.191 µM (active) | 1.61 µM (inactive) | 1.08 µM (active) | 0.622 µM (active) | 0.561 µM (active) | 2.56 µM (inactive) | 0.593 µM (active) | 2.25 µM (inactive) | 0.495 µM (active) | 0.31 µM (active) | 1.36 µM (inactive) | 0.701 µM (active) | 10.5 µM (inactive) | 1.06 µM (active) | 2.15 µM (inactive) | 5.86 µM (inactive) | 0.624 µM (active)
6 | COC(=O)C1=C(C)NC(C)=C(C(=O)OC)C1c1ccc(N=O)cc1 | 24.5 µM (inactive) | 8.87 µM (inactive) | 0.897 µM (active) | 8.77 µM (inactive) | 16.9 µM (inactive) | 6.12 µM (inactive) | 23.8 µM (inactive) | 2.54 µM (inactive) | 17.9 µM (inactive) | 16.2 µM (inactive) | 20.8 µM (inactive) | 1.58 µM (inactive) | 8.22 µM (inactive) | 24.4 µM (inactive) | 17.1 µM (inactive) | 13.7 µM (inactive) | 16.6 µM (inactive) | 17.4 µM (inactive) | 13.6 µM (inactive)
7 | CC1(C)NC2C(=O)c3c([nH]c4ccccc34)[C@]3(C)CCC1CC23 (stereo partly drawn) | > 100 µM (inactive) | > 100 µM (inactive) | > 100 µM (inactive) | > 100 µM (inactive) | > 100 µM (inactive) | > 100 µM (inactive) | > 100 µM (inactive) | 61.7 µM (inactive) | > 100 µM (inactive) | > 100 µM (inactive) | > 100 µM (inactive) | 82.8 µM (inactive) | > 100 µM (inactive) | > 100 µM (inactive) | > 100 µM (inactive) | > 100 µM (inactive) | > 100 µM (inactive) | > 100 µM (inactive) | > 100 µM (inactive)
8 | O=C(O)c1nn(-c2ccccc2-c2nnc(O)nc2O)c(=O)[nH]c1=O | > 100 µM (inactive) | > 100 µM (inactive) | 51.8 µM (inactive) | > 100 µM (inactive) | > 100 µM (inactive) | > 100 µM (inactive) | > 100 µM (inactive) | > 100 µM (inactive) | > 100 µM (inactive) | > 100 µM (inactive) | > 100 µM (inactive) | > 100 µM (inactive) | > 100 µM (inactive) | > 100 µM (inactive) | > 100 µM (inactive) | > 100 µM (inactive) | > 100 µM (inactive) | > 100 µM (inactive) | > 100 µM (inactive)
9 | COc1ccccc1/C=C/C1=NN(c2cccc(S(=O)(=O)O)c2)C2(C1)SCC(=O)N2c1nc2ccccc2s1 (stereo not drawn) | 84.3 µM (inactive) | 56.1 µM (inactive) | 23 µM (inactive) | 67.8 µM (inactive) | 60.3 µM (inactive) | > 100 µM (inactive) |  | 23.3 µM (inactive) | 44.6 µM (inactive) | 30.3 µM (inactive) | > 100 µM (inactive) | 23.6 µM (inactive) | > 100 µM (inactive) |  | > 100 µM (inactive) | > 100 µM (inactive) | 64.4 µM (inactive) | 52.6 µM (inactive) | 
10 | Nc1ccc(COC(O)CN2CCCCC2)cc1[N+](=O)[O-] (stereo not drawn) | > 100 µM (inactive) | > 100 µM (inactive) | > 100 µM (inactive) | > 100 µM (inactive) | > 100 µM (inactive) | > 100 µM (inactive) |  | > 100 µM (inactive) | > 100 µM (inactive) | > 100 µM (inactive) | > 100 µM (inactive) | > 100 µM (inactive) | > 100 µM (inactive) | > 100 µM (inactive) | > 100 µM (inactive) | > 100 µM (inactive) | > 100 µM (inactive) | > 100 µM (inactive) | > 100 µM (inactive)
11 | O=C(O)C1CCCN1C(=O)c1cc(Cl)ccn1 (stereo not drawn) | > 100 µM (inactive) | > 100 µM (inactive) | > 100 µM (inactive) | > 100 µM (inactive) | > 100 µM (inactive) | > 100 µM (inactive) | > 100 µM (inactive) | > 100 µM (inactive) | > 100 µM (inactive) | > 100 µM (inactive) | > 100 µM (inactive) | > 100 µM (inactive) | > 100 µM (inactive) | > 100 µM (inactive) | > 100 µM (inactive) | > 100 µM (inactive) | > 100 µM (inactive) | > 100 µM (inactive) | > 100 µM (inactive)
12 | COc1ccc(C2C(C#N)=C(S)N(C3OC(COC(C)=O)C(OC(C)=O)C(OC(C)=O)C3OC(C)=O)C(c3ccccc3)=C2C(C)=O)cc1 (stereo not drawn) | > 100 µM (inactive) | > 100 µM (inactive) | > 100 µM (inactive) | > 100 µM (inactive) | > 100 µM (inactive) | > 100 µM (inactive) | > 100 µM (inactive) | > 100 µM (inactive) | 63 µM (inactive) | > 100 µM (inactive) | > 100 µM (inactive) | 92 µM (inactive) | 78.9 µM (inactive) | > 100 µM (inactive) | > 100 µM (inactive) | > 100 µM (inactive) | 53.7 µM (inactive) | > 100 µM (inactive) | > 100 µM (inactive)
13 | CCCn1c2c(c3ccccc3c1=O)C(=O)c1ccccc1-2 | 36.4 µM (inactive) | > 100 µM (inactive) | > 56.2 µM (inactive) | > 54.6 µM (inactive) | > 100 µM (inactive) | 25.2 µM (inactive) | 14.1 µM (inactive) | > 57.4 µM (inactive) | > 42.4 µM (inactive) | > 68.9 µM (inactive) | > 100 µM (inactive) | > 28.8 µM (inactive) | 82.4 µM (inactive) | > 80.5 µM (inactive) | > 68.9 µM (inactive) | > 100 µM (inactive) | 11.2 µM (inactive) | > 61.8 µM (inactive) | > 100 µM (inactive)
14 | OC(c1cc(-c2ccccc2)nc2c1ccc1ccccc12)C1CCCCN1 (stereo not drawn) | 1.85 µM (inactive) | 3.97 µM (inactive) | 0.0473 µM (active) | 1.95 µM (inactive) | 0.59 µM (active) | 1.63 µM (inactive) | 1.67 µM (inactive) | 1.62 µM (inactive) | 1.87 µM (inactive) | 1.95 µM (inactive) | 2.1 µM (inactive) | 1.12 µM (active) | 1.81 µM (inactive) | 1.97 µM (inactive) | 1.81 µM (inactive) | 1.79 µM (inactive) | 2.8 µM (inactive) | 1.76 µM (inactive) | 1.84 µM (inactive)
15 | O=C1CSC2=NC3=C(COC/C3=C\c3ccc(Br)cc3)C(c3ccc(Br)cc3)N12 (stereo not drawn) |  | > 100 µM (inactive) | 17.6 µM (inactive) | 58.7 µM (inactive) | > 100 µM (inactive) | 40.2 µM (inactive) | > 100 µM (inactive) | > 100 µM (inactive) | 44.4 µM (inactive) | 90.6 µM (inactive) | 31.8 µM (inactive) | 20.9 µM (inactive) | 37.8 µM (inactive) | 55.7 µM (inactive) |  | > 100 µM (inactive) | 96.4 µM (inactive) | 66.5 µM (inactive) | 61 µM (inactive)
